The subject of the series is liver transaminases (ALT, AST) and bilirubin. Nature of the series: Longitudinal monitoring of liver transaminases (ALT, AST) and bilirubin, relative to prednisolone prophylaxis. In kind it is in vivo, human. The source says: Abbreviations: L, liter; U/L, units per liter; […], upper limit of normal.
Liver transaminases and bilirubin were also monitored over time for patients 2002, 2003, and 2009 (FIG. 11-13).

The record followed here is patent publication US20250135038A1, “COMPOSITIONS AND METHODS FOR IMPROVED TREATMENT OF POMPE DISEASE” (Astellas Gene Therapies, Inc., priority 2022, published 2025).

In the case of `C[C@]12C=CC(=O)C=C1CC[C@@H]1[C@@H]2[C@@H](O)C[C@@]2(C)[C@H]1CC[C@]2(O)C(=O)CO` [prednisolone], for the setting “combination of the viral vector and an anti-transaminitis agent (e.g., prednisolone), conclusion of Example 1”, the “Prophylaxis of liver syndromes associated with GAA gene therapy” value is listed as “can serve as a prophylactic treatment for liver syndromes”. Besides, where the note is “participant 2001, after AAV vector 3×10^13 vg/kg”, the “Response of the rise in transaminases to re-initiation of corticosteroid treatment” value is recorded as “responded well”. The “Response of transaminitis to steroid schedule” value (participant 2003, after AAV vector 6×10^13 vg/kg) is “responsive to a slowing in the steroid tapering schedule and a small increment in steroid dose”; the “Response of transaminitis to steroid schedule” value (participant 2009, after AAV vector 6×10^13 vg/kg) was “responsive to a slowing in the steroid tapering schedule”.
Regarding `C[C@]12C=CC(=O)C=C1CC[C@@H]1[C@@H]2C(=O)C[C@@]2(C)[C@H]1CC[C@]2(O)C(=O)CO` [prednisone], the Liver function parameters entry (Patient 2002 (3×10^13 vg/kg), reduced dose of prophylactic prednisone, throughout steroid tapering and >1 year follow up) is “remained within the normal range”.
